Here are results for one compound from ChEMBL document CHEMBL1687836, “Oral hexadecyloxypropyl-cidofovir therapy in pregnant guinea pigs improves outcome in the congenital model of cytomegalovirus infection” (Antimicrob Agents Chemother, 2011).

pEC50: −log10 of the molar value. Activity calls are given as the source filed them. No cut-off for these calls is given here.

The test system of series [1] is Caviid betaherpesvirus 2. Nature of the series: Antiviral activity against Guinea pig cytomegalovirus strain 22122 infected guinea pig CCL158 cells assessed as plaque reduction measured after 10 days by plaque reduction assay. The series is classed as functional, organism-based. To be noted: Caviid betaherpesvirus 2, CCL158, 240 h.
Series [2] is described as follows: Cytotoxicity against guinea pig CCL158 cells after 10 days by crystal violet staining. The series is classed as cell-based, Cavia porcellus.
A short description of series [3]: Selectivity index, ratio of CC50 for guinea pig CCL158 cells to IC50 for Guinea pig cytomegalovirus strain 22122. The series is classed as functional.
Series [4] concerns Caviid betaherpesvirus 2. In words: Antiviral activity against Guinea pig cytomegalovirus strain 22122 infected in second and third trimesters of pregnant Hartley guinea pig assessed as pregnancy outcome measured as live-born pups at 20 mg/kg, po once at 24 hrs post infection and once 7 days post infection. The series is classed as functional.
In series [5] the test system is Caviid betaherpesvirus 2. Nature of the series: Antiviral activity against Guinea pig cytomegalovirus strain 22122 infected in second and third trimesters of pregnant Hartley guinea pig assessed as reduction in dam blood viral log10 genome copies/ug of DNA at 20 mg/kg, po once at 24 hrs post infection and once at 7 days post infection (reference value: 3.22 +/- 0.2 log10 genome copies/ug DNA). The series is classed as functional.

For series [6], the system named is Caviid betaherpesvirus 2. Nature of the series: Antiviral activity against Guinea pig cytomegalovirus strain 22122 infected in second and third trimesters of pregnant Hartley guinea pig assessed as reduction in viral DNA level in dam spleen at 20 mg/kg, po once at 24 hrs post infection and once at 7 days post infection relative to dam control. The series is classed as functional.

The test system of series [7] is Caviid betaherpesvirus 2. In words: Antiviral activity against Guinea pig cytomegalovirus strain 22122 infected in second and third trimesters of pregnant Hartley guinea pig assessed as reduction in viral DNA level in dam liver at 20 mg/kg, po once at 24 hrs post infection and once at 7 days post infection relative to dam control. The series is classed as functional.

The test system of series [8] is Caviid betaherpesvirus 2. Nature of the series: Antiviral activity against Guinea pig cytomegalovirus strain 22122 infected in second and third trimesters of pregnant Hartley guinea pig assessed as reduction in viral DNA level in pup spleen at 20 mg/kg, po once at 24 hrs post infection and once at 7 days post infection relative to control pup. The series is classed as functional.

The subject of series [9] is Caviid betaherpesvirus 2. Nature of the series: Antiviral activity against Guinea pig cytomegalovirus strain 22122 infected in second and third trimesters of pregnant Hartley guinea pig assessed as reduction in viral DNA level in pup liver at 20 mg/kg, po once at 24 hrs post infection and once at 7 days post infection relative to control pup. The series is classed as functional.

Series [10] concerns Caviid betaherpesvirus 2. Nature of the series: Antiviral activity against Guinea pig cytomegalovirus strain 22122 infected in second and third trimesters of pregnant Hartley guinea pig assessed as pup spleen containing detectable viral DNA at 20 mg/kg, po once at 24 hrs post infection and once at 7 days post infection (reference value: 44%). The series is classed as functional.

The subject of series [11] is Caviid betaherpesvirus 2. In words: Antiviral activity against Guinea pig cytomegalovirus strain 22122 infected in second and third trimesters of pregnant Hartley guinea pig assessed as pup liver containing detectable viral DNA at 20 mg/kg, po once at 24 hrs post infection and once at 7 days post infection (reference value: 73%). The series is classed as functional.

Series [12] concerns Caviid betaherpesvirus 2. In words: Antiviral activity against Guinea pig cytomegalovirus strain 22122 infected in second and third trimesters of pregnant Hartley guinea pig assessed as increase in pup survival at 20 mg/kg, po once at 24 hrs post infection and once at 7 days post infection. The series is classed as functional, organism-based. The arrangement: dose 20 mg/kg. To be noted: Guinea pig cytomegalovirus (strain 22122 / ATCC VR682) (GPCMV).

Series [13] concerns Caviid betaherpesvirus 2. Nature of the series: Antiviral activity against Guinea pig cytomegalovirus strain 22122 infected in second and third trimesters of pregnant Hartley guinea pig assessed as reduction in pups with detectable viral DNA at 20 mg/kg, po once at 24 hrs post infection and once at 7 days post infection. The series is classed as functional, organism-based. To be noted: Guinea pig cytomegalovirus (strain 22122 / ATCC VR682) (GPCMV). The arrangement: dose 20 mg/kg.

In series [14] the test system is Caviid betaherpesvirus 2. In words: Antiviral activity against Guinea pig cytomegalovirus strain 22122 infected in second and third trimesters of pregnant Hartley guinea pig assessed as pregnancy outcome measured as live-born pups at 4 mg/kg, po treatment started at 24 hrs post infection for 5 consecutive days (reference value: 62.5%). The series is classed as functional.

In series [15] the test system is Cavia porcellus. Nature of the series: Toxicity in Guinea pig cytomegalovirus strain 22122 infected second and third trimesters of pregnant Hartley guinea pig assessed as decreased animal activity at 20 mg/kg, po once at 24 hrs post infection and once 7 days post infection. The series is classed as organism-based. The arrangement: dose 20 mg/kg, route oral. To be noted: in vivo.

The subject of series [16] is Cavia porcellus. Nature of the series: Toxicity in Guinea pig cytomegalovirus strain 22122 infected second and third trimesters of pregnant Hartley guinea pig assessed as animal weight loss at 20 mg/kg, po once at 24 hrs post infection and once 7 days post infection. The series is classed as organism-based. The arrangement: dose 20 mg/kg, route oral. To be noted: in vivo.

Series [17] has as its system Cavia porcellus. In words: Toxicity in Guinea pig cytomegalovirus strain 22122 infected second and third trimesters of pregnant Hartley guinea pig assessed as decreased animal activity at 4 mg/kg, po treatment started at 24 hrs post infection for 5 consecutive days. The series is classed as organism-based. The arrangement: dose 4 mg/kg, route oral. To be noted: in vivo.

Series [18] deals with Cavia porcellus. In words: Toxicity in Guinea pig cytomegalovirus strain 22122 infected second and third trimesters of pregnant Hartley guinea pig assessed as animal weight loss at 4 mg/kg, po treatment started at 24 hrs post infection for 5 consecutive days. To be noted: in vivo. The series is classed as organism-based. The arrangement: dose 4 mg/kg, route oral.
For series [19], the system named is Cavia porcellus. In words: Toxicity in Guinea pig cytomegalovirus strain 22122 infected second and third trimesters of pregnant Hartley guinea pig assessed as low birth weight pups at 20 mg/kg, po once at 24 hrs post infection and once 7 days post infection (reference value: 107 +/- 10 g). The series is classed as organism-based. On the set-up: dose 20 mg/kg, route oral. To be noted: in vivo.

Series [20] deals with Cavia porcellus. In words: Toxicity in Guinea pig cytomegalovirus strain 22122 infected second and third trimesters of pregnant Hartley guinea pig assessed as low birth weight pups at 4 mg/kg, po treatment started at 24 hrs post infection for 5 consecutive days (reference value: 107 +/- 10 g). The series is classed as organism-based. On the set-up: dose 4 mg/kg, route oral. To be noted: in vivo.

For series [21], the system named is Cavia porcellus. In words: Toxicity in Guinea pig cytomegalovirus strain 22122 infected second and third trimesters of pregnant Hartley guinea pig assessed as adverse effect on complete blood count at 4 mg/kg, po treatment started at 24 hrs post infection for 9 consecutive days. The series is classed as organism-based. The arrangement: dose 4 mg/kg, route oral. To be noted: in vivo.

In series [22] the test system is Cavia porcellus. In words: Toxicity in Guinea pig cytomegalovirus strain 22122 infected second and third trimesters of pregnant Hartley guinea pig assessed as adverse effect on complete blood count in new born pups at 4 mg/kg, po treatment started at 24 hrs post infection for 9 consecutive days. To be noted: in vivo. On the set-up: dose 4 mg/kg, route oral. The series is classed as organism-based.

As for `CCCCCCCCCCCCCCCCOCCCOP(=O)(O)CO[C@H](CO)Cn1ccc(N)nc1=O` [BRINCIDOFOVIR], the negative-log EC50 (pEC50) – broadly, −log10 of the EC50, conventionally taken in molar units – in the series with Caviid betaherpesvirus 2 [1] is 8.40. Moreover, the 50% cytotoxic concentration (CC50) (as a rule, the concentration that lowers cell viability or growth by half) at 240 h in series [2] was over 100 µM. In addition, the “Selectivity Index” value in [3] is over 25000. Besides, the Activity in the series on Caviid betaherpesvirus 2 [4] is reported as 93.8%; in the series with Caviid betaherpesvirus 2 [5], 2.88; in the series with Caviid betaherpesvirus 2 [10] it was 25%; in the series with Caviid betaherpesvirus 2 [11], 57%; in the series on Caviid betaherpesvirus 2 [14], 100%; with Cavia porcellus [15], “Non-toxic”. For the same compound, the Activity result is given as “Non-toxic” in the series on Cavia porcellus [16]; “Non-toxic” in the series with Cavia porcellus [17]; “Non-toxic” in the series with Cavia porcellus [18]; 103 g in the series on Cavia porcellus [19]; 103 g in the series on Cavia porcellus [20]; “Non-toxic” with Cavia porcellus [21]. The Activity entry in the series on Cavia porcellus [22] is recorded as “Non-toxic”. Besides, the “fold change (FC)” value in the series on Caviid betaherpesvirus 2 [6] was 5; with Caviid betaherpesvirus 2 [7], 6.5; with Caviid betaherpesvirus 2 [8], 6; with Caviid betaherpesvirus 2 [9] it was 10.5. Moreover, the outcome in the series on Caviid betaherpesvirus 2 [12] and with Caviid betaherpesvirus 2 [13] was Active.
